p62/SQSTM1 levels data for three molecules are collected here from patent US20260335323A1, “CHIMERIC MOLECULE” (UCL Business Ltd, priority 2023, published 2026).

Structures are written as SMILES.

This assay deals with p62/SQSTM1. Kind of assay: Western blot, p62/SQSTM1 levels in PANC-1 cells. Format: cell-based, human. An excerpt: FIG. 2. BL-918 is a potent ULK1 agonist and autophagy inducer (A) Representative images of PANC-1 cells stably expressing the mCherry-EGFP-LC3 tandem reporter treated with ULK1 agonists. Nuclei stained with Hoechst 33342, autophagosomes are shown in the EGFP channel and autolysosomes in the mCherry channel. Fold change in the number of autophagosomes (B) and autolysosomes (C) puncta in ULK1 agonist treated cells. (D) Western blot of PANC-1 cells treated with DMSO, bafilomycin and ULK1 agonists±bafilomycin; probed for p-ULK1 (S317), ULK1, p62, b-actin, LC3-I and LC3-II. Quantifications of western blot for changes in the ratio of p-ULK1 (S317):ULK1 (E), p62 (F) and LC31:LC3II (G). All data shown are mean±SEM, n=3, *p<0.05, ** p<0.01, one-way ANOVA with Dunnett's multiple comparisons test.
FIG. 4. ULKTACs retain ULK1 agonist activity and subsequent induction of autophagy (A) Western blot of PANC-1 cells treated with ULKTACs±bafilomycin, probed for p-ULK1 (S317), ULK1, p62, b-Actin, LC31 and LC3II. Quantifications of (A) for the pULK1:ULK1 ratio (B) LC3I:LC3II ratio (C) and changes in p62 (D). (E) Representative images of PANC-1 cells stably expressing the mCherry-EGFP-LC3 tandem reporter treated with ULKTACs w/or w/o bafilomycin. Nuclei stained with Hoechst 33342, autophagosomes are shown in the EGFP channel and autolysosomes in the mCherry channel. […]
Cells were homogenised in protein lysis buffer consisting of 0.1 M Tris pH 8.0, 0.1 M NaCl, 5% glycerol, IGEPAL® CA-630 (#18896. Sigma-Aldrich) and 5 mM EDTA, 0.1 M N-ethyl maleimide (ThermoFisher, #23030) and protease inhibitor (Cell Signalling Technologies, #5871). Protein concentrations were determined using the BCA assay to ensure equal loading. […]
Membranes were then incubated with horseradish peroxidase (HRP)-conjugated secondary antibodies (Rabbit #7074 and Mouse #7076) purchased from Cell Signalling Technologies for 1 hour and the HRP signal was detected using EZ-ECL Enhanced Chemiluminescence Detection Kit for HRP (#20-500-500, Sartorius), and imaged with an Alliance Q9 Advanced (UVITec). […]
On the technique in general: A western blot detects proteins with antibodies after separation by electrophoresis.
For the molecule `O=C(Nc1ccc(F)cc1F)[C@H](NC(=S)Nc1cc(C(F)(F)F)cc(C(F)(F)F)c1)c1ccccc1` [BL-918, reference compound], the p62/SQSTM1 levels result is recorded as “reduction in p62/SQSTM1 levels”.
Then `O=C(Nc1cc(C(F)(F)F)cc(C(F)(F)F)c1)N[C@@H](C(=O)Nc1ccc(F)cc1F)c1ccc(OCc2cn(CCOCCOCCNC(=O)C(=O)c3c(-c4ccccc4)[nH]c4ccccc34)nn2)cc1` [NZ-65, (R)-2-(3-(3,5-bis(trifluoromethyl)phenyl)ureido)-N-(2,4-difluorophenyl)-2-(4-((1-(2-(2-(2-(2-oxo-2-(2-phenyl-1H-indol-3-yl)acetamido)ethoxy)ethoxy)ethyl)-1H-1,2,3-triazol-4-yl)methoxy)phenyl) acetamide], with “mild reductions in p62/SQSTM1”; and `O=C(Nc1cc(C(F)(F)F)cc(C(F)(F)F)c1)N[C@@H](C(=O)Nc1ccc(F)cc1F)c1ccc(OCc2cn(CCCCCCNC(=O)C(=O)c3c(-c4ccccc4)[nH]c4ccccc34)nn2)cc1` [NZ-66, (R)-2-(3-(3,5-bis(trifluoromethyl)phenyl)ureido)-N-(2,4-difluorophenyl)-2-(4-((1-(6-(2-oxo-2-(2-phenyl-1H-indol-3-yl)acetamido)hexyl)-1H-1,2,3-triazol-4-yl)methoxy)phenyl) acetamide], with “mild reductions in p62/SQSTM1”.
